{"source": "paper PMC11091888", "about": "“Evaluation of Fusobacterium nucleatum Enoyl-ACP Reductase (FabK) as a Narrow-Spectrum Drug Target” (ACS Infectious Diseases, 2024)", "key": {"F. nucleatum 23726": {"tested_on": "F. nucleatum 23726", "assay": "MIC against F. nucleatum 23726", "type": "cell-based, Fusobacterium nucleatum", "details": "Fusobacterium nucleatum, 23726, F. nucleatum 23726 wild-type; three biological replicates; read-out: MIC Fn 23726", "procedure": "Compounds were twofold serially diluted (100–0.2 μg/mL) across a 96-well plate in 100 μL of media used for the specific organism (Table S4). For anaerobes, plates were incubated anaerobically at 37 °C for 1 h and then inoculated with approximately 10^5 to 10^6 CFU/well. Plates were incubated at 37 °C for up to 48 h, and MICs were read by visual inspection."}, "[1]": {"assay": "Cytotoxicity against HCT116 cells (resazurin viability)", "type": "cell-based", "details": "human, HCT116 colorectal carcinoma cells, maximum tested concentration 100 μg/mL", "procedure": "This was done as described[36] using colorectal carcinoma HCT116 and Vero epithelial cells cultured at 37 °C in 5% CO2 in Dulbecco’s modified Eagle’s medium (DMEM) with 4.5 g/L glucose and L-glutamine. The medium was supplemented with 10% v/v FetalGro (Rocky Mountain Biologicals). Approximately 25,000/well were aliquoted into black 96-well plates (Greiner Bio-One) and incubated overnight, before being resuspended in DMEM supplemented with 20% Gibco KnockOut Serum Replacement (Thermo Fisher Scientific). […] Cell viability was analyzed using resazurin as described.[36]"}, "CdFabK": {"tested_on": "CdFabK", "parameters": "method as in PMID 37224699", "details": "previously reported, cited from earlier work"}}}
{"smiles": "CS(=O)(=O)c1ccc2nc(NC(=O)NCc3nc(-c4ccc(Br)cc4)c[nH]3)sc2c1", "note": "[Compound 681, 1-((4-(4-bromophenyl)-1H-imidazole-2-yl)methyl)-3-(6-(methylsulfonyl)benzo[d]thiazol-2-yl)urea]", "values": [{"measurement": "MIC", "setting": "F. nucleatum 23726", "value": 0.4, "unit": "µg/mL"}, {"measurement": "IC50 at 24 h", "setting": "[1]", "value": "> 100", "unit": "µg/mL"}, {"measurement": "IC50 against CdFabK, equivalent concentration", "setting": "CdFabK", "value": 0.2, "unit": "µg/mL"}, {"measurement": "IC50", "setting": "CdFabK; read-out: IC50 against CdFabK", "value": 450, "unit": "nM"}]}
